# Measurements from patent US12570639B2, “Tetrahydroquinoline derivative and medicinal use thereof” (Toray Industries, Inc., priority 2020, dated 2026).
# Where a name gives a salt, the structure may show the parent alone.
# What was measured:
# [1] = system: MOG-induced experimental autoimmune encephalomyelitis mouse model; assay: Activity assessment 3 in MOG-induced experimental autoimmune encephalomyelitis mouse model; type: in vivo, C57BL/6J mice; settings: 10 mg/kg orally twice daily for 10 days starting 53 days after MOG35-55 inoculation; vs vehicle-dosing group (2.25)
# Experimental: (§1) A PBS solution prepared to contain a synthetic partial peptide of MOG (MOG35-55; CSBio) at a concentration of 4 mg/mL was mixed with an equal volume of Freund's complete adjuvant, and a total of 0.1 mL (0.05 mL per flank) of the resulting MOG35-55 dosing solution was inoculated intradermally into the bilateral flanks of C57BL/6J mice (male, 10 weeks old, Charles River Laboratories Japan, Inc.). On the day of inoculation of the MOG35-55 dosing solution and on the second day after the inoculation, 200 μL of pertussis toxin (Sigma Co. LLC) prepared at a concentration of 1 μg/mL was further administered intraperitoneally to the mice.
# (§2) The compound of Example 11, the compound of Example 32, and the compound of Example 36 were used as test compounds to assess the effect of the test compounds on increase of neurological score in the MOG-induced experimental autoimmune encephalomyelitis mouse model. The study was performed in the same manner as in Example 175, except that the start day for administrating a test compound, the scoring method, and the timing of determining the neurological score were changed from those in Example 175. Each test compound was administered orally at a dose of 30 mg/kg twice daily for a period of 15 days starting 50 days after the inoculation of the MOG35-55 dosing solution. In addition, the score was determined by the following criteria: 0, normal; 0.5, partial drooping tail; 1, full drooping tail or hind-limb weakness; 2, full drooping tail and hind-limb weakness; 3, hind-limb partial paralysis; 4, hind-limb complete paralysis; 5, fore- and hind-limb complete paralysis.
# The compound of Example 144, the compound of Example 171, and the compound of Example 172 were used as test compounds to assess the effect of the test compounds on increase of neurological score in the MOG-induced experimental autoimmune encephalomyelitis mouse model. […]
# [2] = system: Human fibrosarcoma cells (HT-1080 cells); assay: In vitro inhibitory action against ferroptosis (Erastin-induced cell death, Cell Counting Kit-8); type: cell-based; settings: Erastin 3 μmol/L, 24 hours
# [3] = system: MOG-induced experimental autoimmune encephalomyelitis mouse model; assay: Activity assessment 2 in MOG-induced experimental autoimmune encephalomyelitis mouse model; type: in vivo, C57BL/6J mice; settings: 30 mg/kg orally twice daily for 15 days starting 50 days after MOG35-55 inoculation; vs vehicle-dosing group (1.93)
# Experimental: as §1, §2
# The vertical axis represents neurological score (mean±standard error, n=7 or 8). On the horizontal axis, “Vehicle” represents the vehicle-dosing group, and “Compound of Example 11” represents the compound of Example 11—dosing group, and “Compound of Example 32” represents the compound of Example 32—dosing group, and “Compound of Example 36” represents the compound of Example 36—dosing group.
# [4] = In vitro radical scavenging action (DPPH method); settings: 30 minutes at room temperature, maximum concentration 100 μmol/L
# Experimental: Radical scavenging action was evaluated using the DPPH method in the compound of Comparative Example 1, which is a tetrahydroquinoxaline derivative, and in the tetrahydroquinoline derivative (I) or a pharmaceutically acceptable salt thereof. The DPPH method was performed using an antioxidant capacity measurement kit (Dojindo Laboratories).
# A test compound was dissolved in DMSO, and the resulting solution was then mixed with an assay buffer and a DPPH solution, which are included in the kit, to a total volume of 200 μL to obtain a final concentration of 10% DMSO, and the reaction was allowed to proceed. Wells added with 100 μmol/L ferrostatin-1, a radical scavenger, were grouped as “control,” and wells added with not test compound were grouped as “background.” The test compound was serially diluted 3-fold starting from a maximum concentration of 100 μmol/L, and the diluted test compound (1.2, 3.7, 11.1, 33.3, or 100 μmol/L) was added and allowed to react at room temperature. Thirty minutes after the reaction, the absorbance at 517 nm was measured, and the average absorbance value was calculated (N=2). The radical scavenging action of the test compound (hereinafter referred to as radical scavenging rate, %) was calculated based on the equation 2 below. The EC50 value of the test compound was calculated from the radical scavenging rate. Radical scavenging rate (%)=[1−{(Average absorbance value at 517 nm measured when a test compound is added)−(Average absorbance value at 517 nm measured in the background)}/{(Average absorbance value at 517 nm measured in the control)−(Average absorbance value at 517 nm measured in the background)}]×100 Equation 2
# A note “no detection of radical scavenging action (N.D.),” is given to compounds with a EC50 of >100 μmol/L.
# [5] = system: MOG-induced experimental autoimmune encephalomyelitis mouse model; assay: Activity assessment 4 in MOG-induced experimental autoimmune encephalomyelitis mouse model; type: in vivo, C57BL/6J mice; settings: 10 mg/kg orally twice daily for 16 days starting 52 days after MOG35-55 inoculation; vs vehicle-dosing group (2.25)
# Experimental: as §1
# The compound of Example 11, the compound of Example 32, and the compound of Example 36 were used as test compounds to assess the effect of the test compounds on increase of neurological score in the MOG-induced experimental autoimmune encephalomyelitis mouse model. […] In addition, the score was determined by the following criteria: 0, normal; 0.5, partial drooping tail; 1, full drooping tail or hind-limb weakness; 2, full drooping tail and hind-limb weakness; 3, hind-limb partial paralysis; 4, hind-limb complete paralysis; 5, fore- and hind-limb complete paralysis. […]
# [6] = system: MOG-induced experimental autoimmune encephalomyelitis mouse model; assay: Activity assessment 1 in MOG-induced experimental autoimmune encephalomyelitis mouse model; type: in vivo, C57BL/6J mice; settings: 30 mg/kg orally twice daily for 15 days starting 55 days after MOG35-55 inoculation
# Experimental: The effect of the compound of Example 1 on increase of neurological score was assessed in the MOG-induced experimental autoimmune encephalomyelitis mouse model. The MOG-induced experimental autoimmune encephalomyelitis mouse model was produced according to the method of Jianfeng et al. (The Journal of Immunology, 2009, vol. 182, p. 4036-4045) with partial modification. A PBS solution prepared to contain a synthetic partial peptide of MOG (MOG35-55; CSBio) at a concentration of 4 mg/mL was mixed with an equal volume of Freund's complete adjuvant, and a total of 0.1 mL (0.05 mL per flank) of the resulting MOG35-55 dosing solution was inoculated intradermally into the bilateral flanks of C57BL/6J mice (male, 10 weeks old, Charles River Laboratories Japan, Inc.). On the day of inoculation of the MOG35-55 dosing solution and on the second day after the inoculation, 200 μL of pertussis toxin (Sigma Co. LLC) prepared at a concentration of 1 μg/mL was further administered intraperitoneally to the mice. A test compound was administered orally at a dose of 30 mg/kg twice daily for a period of 15 days starting 55 days after the inoculation of the MOG35-55 dosing solution. The test compound was suspended in a 0.5% methylcellulose solution (hereinafter referred to as vehicle), and the resulting suspension was used. […]
# [7] = evaluation concentration 30 μmol/L
# [8] = evaluation concentration 10 μmol/L
smiles,measurement,setting,value
"NS(=O)(=O)c1ccc(C2CNc3ccccc3C2)cc1 (stereo not drawn) [Example 171, 4-(1,2,3,4-tetrahydroquinolin-3-yl)benzenesulfonamide]",neurological score reduction rate,[1],47.2%
same,Ferroptosis inhibition rate (%),[2]; [7],90.71%
"NS(=O)(=O)c1ccc(C2CCc3ccccc3N2)cc1 (stereo not drawn) [Example 32, 4-(1,2,3,4-tetrahydroquinolin-2-yl)benzenesulfonamide]",neurological score reduction rate,[3],55.4%
same,EC50,[4],> 100 µM
same,Ferroptosis inhibition rate (%),[2]; [7],100.5%
"c1ccc2c(c1)CCC(c1cn[nH]c1)N2 (stereo not drawn) [Example 11, 2-(1H-pyrazol-4-yl)-1,2,3,4-tetrahydroquinoline]",neurological score reduction rate,[3],54.4%
same,Ferroptosis inhibition rate (%),[2]; evaluation concentration 50 μmol/L,106.0%
"NC(=O)c1ccc(C2CCc3ccccc3N2)cc1 (stereo not drawn) [Example 38, 4-(1,2,3,4-tetrahydroquinolin-2-yl)benzamide]",EC50,[4],> 100 µM
same,neurological score reduction rate,[5],27.8%
same,Ferroptosis inhibition rate (%),[2]; [7],104.0%
"Cl.c1ccc(C2CCc3ccccc3N2)cc1 (stereo not drawn) [Example 1, 2-phenyl-1,2,3,4-tetrahydroquinoline hydrochloride]",EC50,[4],> 100 µM
same,neurological score,"[6]; next day after last administration, mean, n=7",1.29
same,neurological score reduction rate,[6]; vs vehicle-dosing group (2.43),46.9%
same,Ferroptosis inhibition rate (%),[2]; [7],110.5%
"O=C(Cc1ccc2c(c1)CCC(c1ccccc1)N2)N1CC(O)C1 (stereo not drawn) [Example 144, 1-(3-hydroxyazetidin-1-yl)-2-(2-phenyl-1,2,3,4-tetrahydroquinolin-6-yl)ethan-1-one hydrochloride]",neurological score reduction rate,[1],25.0%
same,EC50,[4],> 100 µM
same,Ferroptosis inhibition rate (%),"[2]; evaluation concentration 30 μmol/L, hydrochloride",96.14%
"NS(=O)(=O)c1ccc(C2CNc3ccccc3C2)cc1 (stereo not drawn) [Example 172, 4-(1,2,3,4-tetrahydroquinolin-3-yl)benzenesulfonamide]",neurological score reduction rate,[1],27.8%
same,Ferroptosis inhibition rate (%),[2]; [7],92.87%
"NC(=O)c1ccc(C2CCc3ccccc3N2)cc1 (stereo not drawn) [Example 36, 4-(1,2,3,4-tetrahydroquinolin-2-yl)benzamide]",neurological score reduction rate,[3],45.1%
same,EC50,[4],> 100 µM
same,Ferroptosis inhibition rate (%),[2]; [7],98.76%
"Cc1ccc2c(c1)CCC(c1ccc(S(N)(=O)=O)cc1)N2 (stereo not drawn) [Example 119, 4-(6-methyl-1,2,3,4-tetrahydro-quinolin-2-yl)benzenesulfonamide]",EC50,[4],> 100 µM
same,neurological score reduction rate,[5],33.3%
same,Ferroptosis inhibition rate (%),[2]; [8],89.67%
"NS(=O)(=O)c1ccc(C2CCc3cc(F)ccc3N2)cc1 (stereo not drawn) [Example 109, 4-(6-fluoro-1,2,3,4-tetrahydro-quinolin-2-yl)benzenesulfonamide]",EC50,[4],> 100 µM
same,Ferroptosis inhibition rate (%),[2]; [8],83.63%
